According to ChEMBL document CHEMBL3259590, “The discovery of diazepinone-based 5-HT3 receptor partial agonists” (Bioorg Med Chem Lett, 2014):

Columns and labels:
[1] = Intrinsic clearance in human liver microsomes; type: ADME; conditions: read-out: CLH
[2] = target: T1, Cytochrome P450 1A2 (Homo sapiens, UniProt P05177); test: Inhibition of CYP1A2 (unknown origin); type: ADME
T1 sequence (P05177 whole entry): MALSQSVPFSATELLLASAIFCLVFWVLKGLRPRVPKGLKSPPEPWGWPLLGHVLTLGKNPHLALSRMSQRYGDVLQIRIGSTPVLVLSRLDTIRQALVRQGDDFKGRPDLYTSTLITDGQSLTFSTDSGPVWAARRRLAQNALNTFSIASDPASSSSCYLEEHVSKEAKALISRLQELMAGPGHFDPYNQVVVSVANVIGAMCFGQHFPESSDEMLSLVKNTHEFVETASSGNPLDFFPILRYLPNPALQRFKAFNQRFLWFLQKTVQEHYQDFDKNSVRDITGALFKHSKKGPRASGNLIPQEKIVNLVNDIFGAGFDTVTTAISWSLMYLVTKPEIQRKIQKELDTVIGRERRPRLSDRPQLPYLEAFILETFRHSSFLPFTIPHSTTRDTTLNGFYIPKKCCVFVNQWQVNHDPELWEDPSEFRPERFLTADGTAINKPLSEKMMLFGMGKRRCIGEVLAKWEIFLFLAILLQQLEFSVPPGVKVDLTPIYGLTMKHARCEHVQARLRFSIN

[3] = target: Cytochrome P450 2D6 (Homo sapiens, UniProt P10635); test: Inhibition of CYP2D6 (unknown origin); type: ADME
Chain of Cytochrome P450 2D6 (P10635 whole entry): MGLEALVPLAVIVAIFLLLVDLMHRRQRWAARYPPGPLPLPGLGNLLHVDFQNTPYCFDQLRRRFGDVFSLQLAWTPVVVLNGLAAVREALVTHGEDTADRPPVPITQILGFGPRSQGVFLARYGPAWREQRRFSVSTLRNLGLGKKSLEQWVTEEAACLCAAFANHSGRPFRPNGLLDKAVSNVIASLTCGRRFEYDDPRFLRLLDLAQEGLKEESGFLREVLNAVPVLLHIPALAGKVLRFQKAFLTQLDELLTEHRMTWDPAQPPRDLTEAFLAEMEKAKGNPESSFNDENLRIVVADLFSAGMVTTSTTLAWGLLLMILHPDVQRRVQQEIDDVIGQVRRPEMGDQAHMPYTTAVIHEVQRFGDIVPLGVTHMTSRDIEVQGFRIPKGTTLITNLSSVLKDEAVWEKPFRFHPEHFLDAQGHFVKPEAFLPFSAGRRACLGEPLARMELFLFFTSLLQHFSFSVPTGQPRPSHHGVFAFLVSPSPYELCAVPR

[4] = target: T2, 5-hydroxytryptamine receptor 3A (Mus musculus, UniProt P23979); test: Agonist activity at mouse 5-HT3A receptor expressed in HEK293 cells in presence of carbachol; type: cell-based
T2 sequence (P23979 whole entry): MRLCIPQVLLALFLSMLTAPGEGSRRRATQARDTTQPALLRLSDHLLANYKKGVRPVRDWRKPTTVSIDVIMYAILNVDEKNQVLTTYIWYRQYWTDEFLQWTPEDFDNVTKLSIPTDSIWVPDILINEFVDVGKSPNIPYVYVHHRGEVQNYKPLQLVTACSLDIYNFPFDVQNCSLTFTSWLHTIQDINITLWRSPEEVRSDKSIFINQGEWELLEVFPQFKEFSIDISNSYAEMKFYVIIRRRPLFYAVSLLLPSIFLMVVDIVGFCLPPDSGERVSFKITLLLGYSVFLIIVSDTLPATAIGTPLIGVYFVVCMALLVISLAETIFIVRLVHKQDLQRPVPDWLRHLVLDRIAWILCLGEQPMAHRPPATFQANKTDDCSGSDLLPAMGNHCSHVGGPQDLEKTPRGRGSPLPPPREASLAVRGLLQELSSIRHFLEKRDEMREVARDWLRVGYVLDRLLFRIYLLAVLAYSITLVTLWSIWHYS

[5] = target: Cytochrome P450 3A4 (Homo sapiens, UniProt P08684); test: Inhibition of CYP3A4 (unknown origin); type: ADME
Chain of Cytochrome P450 3A4 (P08684 whole entry): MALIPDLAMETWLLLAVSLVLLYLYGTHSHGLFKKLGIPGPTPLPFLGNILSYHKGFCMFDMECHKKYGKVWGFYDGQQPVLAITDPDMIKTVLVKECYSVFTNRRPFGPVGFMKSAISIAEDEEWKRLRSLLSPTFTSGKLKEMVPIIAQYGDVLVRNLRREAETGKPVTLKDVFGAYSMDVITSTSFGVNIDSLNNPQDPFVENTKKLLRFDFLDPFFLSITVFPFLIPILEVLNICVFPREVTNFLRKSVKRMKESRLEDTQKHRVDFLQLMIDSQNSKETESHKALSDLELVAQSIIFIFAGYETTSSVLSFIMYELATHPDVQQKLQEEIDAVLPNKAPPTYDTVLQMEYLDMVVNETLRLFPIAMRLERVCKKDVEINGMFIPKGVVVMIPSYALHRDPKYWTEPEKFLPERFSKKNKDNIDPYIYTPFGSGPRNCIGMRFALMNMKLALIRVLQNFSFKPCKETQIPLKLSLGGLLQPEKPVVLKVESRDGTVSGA

[6] = target: T3, 5-hydroxytryptamine receptor 3A (Homo sapiens, UniProt P46098); test: Displacement of [9-methyl-3H]BRL-43694 from human 5-HT3A receptor after overnight incubation by scintillation proximity assay
T3 sequence (P46098 whole entry): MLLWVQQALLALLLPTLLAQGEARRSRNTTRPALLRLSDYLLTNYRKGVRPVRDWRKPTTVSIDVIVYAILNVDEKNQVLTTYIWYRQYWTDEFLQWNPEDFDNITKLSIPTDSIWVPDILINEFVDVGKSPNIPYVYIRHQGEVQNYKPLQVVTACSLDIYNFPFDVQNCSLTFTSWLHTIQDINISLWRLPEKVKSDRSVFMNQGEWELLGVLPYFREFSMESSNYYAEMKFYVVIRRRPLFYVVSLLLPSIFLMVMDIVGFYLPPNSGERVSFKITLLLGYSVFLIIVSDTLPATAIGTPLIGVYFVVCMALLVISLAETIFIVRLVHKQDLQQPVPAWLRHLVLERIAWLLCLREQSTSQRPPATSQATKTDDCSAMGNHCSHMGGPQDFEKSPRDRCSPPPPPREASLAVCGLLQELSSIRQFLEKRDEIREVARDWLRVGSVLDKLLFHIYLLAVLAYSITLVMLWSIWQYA

[7] = target: T4, Cytochrome P450 2B6 (Homo sapiens, UniProt P20813); test: Inhibition of CYP2B6 (unknown origin); type: ADME
T4 sequence (P20813 whole entry): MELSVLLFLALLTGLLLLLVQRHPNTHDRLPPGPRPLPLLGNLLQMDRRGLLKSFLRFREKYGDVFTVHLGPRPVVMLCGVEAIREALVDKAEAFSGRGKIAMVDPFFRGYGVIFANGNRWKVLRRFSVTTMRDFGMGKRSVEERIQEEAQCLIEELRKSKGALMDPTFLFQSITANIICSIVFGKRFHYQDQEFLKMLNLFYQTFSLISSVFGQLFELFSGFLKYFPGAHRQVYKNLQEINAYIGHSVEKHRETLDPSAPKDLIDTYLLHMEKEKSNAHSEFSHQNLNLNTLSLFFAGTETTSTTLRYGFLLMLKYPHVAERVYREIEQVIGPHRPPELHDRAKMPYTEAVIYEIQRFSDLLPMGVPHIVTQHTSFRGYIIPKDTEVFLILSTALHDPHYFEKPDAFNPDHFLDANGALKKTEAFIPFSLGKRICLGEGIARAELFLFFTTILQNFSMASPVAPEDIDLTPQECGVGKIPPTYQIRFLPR

[8] = target: Cytochrome P450 2C9 (Homo sapiens, UniProt P11712); test: Inhibition of CYP2C9 (unknown origin); type: ADME
Chain of Cytochrome P450 2C9 (P11712 whole entry): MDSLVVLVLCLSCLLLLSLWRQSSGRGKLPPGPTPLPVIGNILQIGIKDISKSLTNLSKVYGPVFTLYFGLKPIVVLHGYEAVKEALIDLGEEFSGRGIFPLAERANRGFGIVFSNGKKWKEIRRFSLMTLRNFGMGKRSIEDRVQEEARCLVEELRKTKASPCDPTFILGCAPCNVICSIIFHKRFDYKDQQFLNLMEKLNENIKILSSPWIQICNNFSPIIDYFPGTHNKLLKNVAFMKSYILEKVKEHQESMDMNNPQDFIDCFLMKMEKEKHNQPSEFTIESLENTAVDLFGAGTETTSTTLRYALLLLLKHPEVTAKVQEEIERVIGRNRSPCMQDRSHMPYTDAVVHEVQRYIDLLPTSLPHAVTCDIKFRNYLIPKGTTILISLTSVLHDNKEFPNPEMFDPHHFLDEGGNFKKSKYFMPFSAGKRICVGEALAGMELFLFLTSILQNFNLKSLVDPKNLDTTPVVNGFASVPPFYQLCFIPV

[9] = target: T5, 5-hydroxytryptamine receptor 3A (Mus musculus) (UniProt P23979); test: Partial agonist activity at mouse 5-HT3A receptor expressed in HEK293 cells assessed as change in Ca2+ level measured as intrinsic activity at 1 uM relative to 5-HT in presence of carbachol; type: cell-based
T5 sequence (whole entry): T2 sequence (P23979 whole entry)

[10] = target: T6, 5-hydroxytryptamine receptor 3A (Homo sapiens) (UniProt P46098); test: Partial agonist activity at human 5-HT3A receptor expressed in HEK293 cells assessed as change in Ca2+ level measured as intrinsic activity at 1 uM relative to 5-HT in presence of carbachol; type: cell-based
T6 sequence (whole entry): T3 sequence (P46098 whole entry)

[11] = target: Cytochrome P450 2C19 (Homo sapiens, UniProt P33261); test: Inhibition of CYP2C19 (unknown origin); type: ADME
Chain of Cytochrome P450 2C19 (P33261 whole entry): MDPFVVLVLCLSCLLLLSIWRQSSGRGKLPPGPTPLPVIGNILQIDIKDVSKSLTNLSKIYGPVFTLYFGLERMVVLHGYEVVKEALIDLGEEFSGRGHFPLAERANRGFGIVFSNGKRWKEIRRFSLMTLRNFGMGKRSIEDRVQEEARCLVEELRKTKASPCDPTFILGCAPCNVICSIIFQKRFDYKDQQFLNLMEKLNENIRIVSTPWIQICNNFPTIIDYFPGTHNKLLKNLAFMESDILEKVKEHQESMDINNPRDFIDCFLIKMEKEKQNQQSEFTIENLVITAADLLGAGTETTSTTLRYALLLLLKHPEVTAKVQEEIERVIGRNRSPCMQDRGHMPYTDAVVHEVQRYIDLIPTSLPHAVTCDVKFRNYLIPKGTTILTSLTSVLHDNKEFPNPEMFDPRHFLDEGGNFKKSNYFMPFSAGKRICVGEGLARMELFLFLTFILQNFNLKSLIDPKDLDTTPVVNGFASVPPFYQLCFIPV

[12] = target: T3, 5-hydroxytryptamine receptor 3A; test: Agonist activity at human 5-HT3A receptor expressed in HEK293 cells in presence of carbachol; type: cell-based
[13] = tested on: Mus musculus; test: Inhibition of 5-HT induced-bradycardia in ICR mouse von Bezold-Jarisch reflex model at 1 mg/kg, po after 60 mins relative to control; type: functional; conditions: 1 h
[14] = tested on: Mus musculus; test: Inhibition of 5-HT induced-bradycardia in ICR mouse von Bezold-Jarisch reflex model at 3 mg/kg, po after 60 mins relative to control; type: functional; conditions: 1 h

Row | Structure (SMILES) | microsomal CLint [1] [µL/min/mg] | IC50 [2] [µM] | IC50 [3] [µM] | EC50 [4] [µM] | IC50 [5] [µM] | Ki [6] [µM] | IC50 [7] [µM] | IC50 [8] [µM] | Activity [9] [%] | Activity [10] [%] | IC50 [11] [µM] | EC50 [12] [µM] | inhibition in vivo at 1 mg/kg [13] [%] | inhibition in vivo at 3 mg/kg [14] [%]
1 | Cc1cn2c3c(cc(Cl)cc13)C(=O)N([C@@H]1CN3CCC1CC3)CC2 | 2.3 | 8.8 |  |  |  |  |  |  |  |  |  |  |  | 
2 | O=C1c2cc(F)cc3cnn(c23)CCN1[C@@H]1CN2CCC1CC2 | 8.8 | > 50 | > 50 | 0.178 | > 50 | 0.0064 | > 50 | > 50 | 31 | 30 | > 50 | 0.178 |  | 
3 | COc1cc2c3c(cnn3CCN([C@@H]3CN4CCC3CC4)C2=O)c1 | 1.8 | > 50 | > 50 | 0.178 | > 50 | 0.0135 | > 50 | > 50 | 81 | 87 | > 50 | 0.178 |  | 
4 | Cc1[nH]cnc1CN1CCc2c(c3ccccc3n2C)C1=O [ALOSETRON] | 3 |  |  |  |  |  |  |  |  |  |  |  | 95 | 
5 | O=C1c2cccc3ccn(c23)CCN1[C@H]1CN2CCC1CC2 |  |  |  |  |  | 0.0676 |  |  |  |  |  |  |  | 
6 | O=C1c2cccc3cnn(c23)CCN1[C@@H]1CN2CCC1CC2 | < 1.7 | > 50 | > 50 | 0.178 | > 50 | 0.0081 | > 50 | > 50 | 16 | 19 | > 50 | 0.178 |  | 77
7 | O=C1c2cccc3ccn(c23)CCN1[C@@H]1CN2CCC1CC2 | < 1.7 | > 50 | > 50 |  | > 50 | 0.0031 | > 50 | > 50 |  | 7 | > 50 | 0.178 |  | 
8 | O=C1c2cc(Cl)cc3cnn(c23)CCN1[C@@H]1CN2CCC1CC2 | 3.1 | > 50 | > 50 | 0.178 | > 50 |  | > 50 | > 50 | 27 | 28 | > 50 | 0.178 |  | 
9 | Cc1cc2c3c(cnn3CCN([C@@H]3CN4CCC3CC4)C2=O)c1 |  |  |  |  |  | 0.0008 |  |  |  |  |  |  |  | 
10 | O=C1c2cccc3[nH]c(=O)n(c23)CCN1[C@@H]1CN2CCC1CC2 | 8.4 | > 50 | > 50 |  | > 50 | 0.0057 | > 50 | > 50 |  | 83 | > 50 | 0.178 |  | 
